# Where two headings read alike, the source gives them in different places.
# Experiments:
# Format in all cases: cell-based
# [1] = test system: M. suipneumoniae Str. 11; test: Anti-mycoplasmal activity in vitro MIC; settings: Mesomycoplasma hyopneumoniae
# [2] = test system: M. pneumoniae ATCC 15492; test: Anti-mycoplasmal activity in vitro MIC; settings: Mycoplasmoides pneumoniae, ATCC15492, 144 h; M. pneumoniae ATCC 15492; Friis broth, 0.9% agarose, 6 days 37° C.; read-out: M.I.C.
# [3] = test system: M. hyorhinis ATCC 25021; test: Anti-mycoplasmal activity in vitro MIC; settings: Mesomycoplasma hyorhinis, ATCC25021, 144 h
# [4] = test system: Past. multocida PA2; test: Veterinary bacteria MIC; settings: Pasteurella multocida; Past. multocida PA2; Diagnostic Sensitivity Test Agar, 18 hours 37° C.; read-out: M.I.C.
# Method: (§1) The values were determined using a two fold serial dilutions in Diagnostic Sensitivity Test Agar with an inoculum of 10^4 organisms and incubation for 18 hours at 37° C.
# [5] = test system: Staph. aureus Oxford; test: Veterinary bacteria MIC; settings: Staphylococcus aureus, Diagnostic Sensitivity Test Agar, 18 hours 37° C.
# Method: as §1
# [6] = test system: Past. multocida PA1; test: Veterinary bacteria MIC; settings: Pasteurella multocida, Diagnostic Sensitivity Test Agar, 18 hours 37° C.
# Method: as §1
# [7] = test system: S. typhimurium S18; test: Veterinary bacteria MIC; settings: Salmonella enterica
# Method: as §1
# [8] = test system: Staph. aureus 152 (pen. sens); test: Veterinary bacteria MIC; settings: Staphylococcus aureus, Diagnostic Sensitivity Test Agar, 18 hours 37° C.
# Method: as §1
# [9] = test system: Strep. agalactiae SPA1; test: Veterinary bacteria MIC; settings: Streptococcus agalactiae, Diagnostic Sensitivity Test Agar, 18 hours 37° C.
# Method: as §1
# [10] = test system: Strep. dysgalactiae SPD1; test: Veterinary bacteria MIC; settings: Streptococcus dysgalactiae, Diagnostic Sensitivity Test Agar, 18 hours 37° C.
# Method: as §1
# [11] = test system: Bord. bronchiseptica B08; test: Veterinary bacteria MIC; settings: Bordetella bronchiseptica; Bord. bronchiseptica B08; Diagnostic Sensitivity Test Agar, 18 hours 37° C.; read-out: M.I.C.
# Method: as §1
# [12] = test system: E. coli NCTC 10418; test: Veterinary bacteria MIC; settings: Escherichia coli
# Method: as §1
# [13] = test system: Bord. brochiasetpica B09; test: Veterinary bacteria MIC; settings: Diagnostic Sensitivity Test Agar, 18 hours 37° C.
# Method: as §1
# [14] = test system: S. dublin S7; test: Veterinary bacteria MIC; settings: Salmonella enterica
# Method: as §1
# [15] = test system: Strep. suis (Group D) SPS11; test: Veterinary bacteria MIC; settings: Streptococcus suis
# Method: as §1
# [16] = test system: Past. haemolytica PA5; test: Veterinary bacteria MIC; settings: Mannheimia haemolytica; Past. haemolytica PA5; Diagnostic Sensitivity Test Agar, 18 hours 37° C.; read-out: M.I.C.
# Method: as §1
# [17] = test system: E. coli El; test: Veterinary bacteria MIC; settings: Escherichia coli
# Method: as §1
# [18] = test system: Staph. aureus B4 (pen. resistant); test: Veterinary bacteria MIC; settings: Staphylococcus aureus, Diagnostic Sensitivity Test Agar, 18 hours 37° C.
# Method: as §1
# [19] = test system: Strep. uberis SPU1; test: Veterinary bacteria MIC; settings: Streptococcus uberis, Diagnostic Sensitivity Test Agar, 18 hours 37° C.
# Method: as §1
# [20] = test system: Corynebacterium pyogenes CY1; test: Veterinary bacteria MIC; settings: Trueperella pyogenes
# Method: as §1
# [21] = test system: Erysipelothrix rhusiopathiae NCTC 8163; test: Veterinary bacteria MIC; settings: NCTC8163; Erysipelothrix rhusiopathiae NCTC 8163; Diagnostic Sensitivity Test Agar, 18 hours 37° C.; read-out: M.I.C.
# Method: as §1
# [22] = test system: M. bovis NCTC 10131; test: microbe, parasite or virus in culture; settings: NCTC10131, 144 h
# [23] = test system: M. hyorhinis ATCC 23234; test: Anti-mycoplasmal activity in vitro MIC; settings: Mesomycoplasma hyorhinis, ATCC23234, 144 h
# [24] = test system: Strep. Group C 64/848; test: Human bacteria MIC; settings: Strep. Group C 64/848; nutrient agar, 5% chocolated horse blood, 18 hours 37° C.; read-out: M.I.C.
# Method: The values were determined by serial dilutions in nutrient agar with 5% chocolated horse blood after incubations for 18 hours at 37° C.
# [25] = test system: M. suipneumoniae UCD 1; test: Anti-mycoplasmal activity in vitro MIC; settings: Mesomycoplasma hyopneumoniae, UCD1, 144 h
# [26] = test system: M. suipneumoniae J2206/183b; test: Anti-mycoplasmal activity in vitro MIC; settings: Mesomycoplasma hyopneumoniae, 144 h
# [27] = test system: M. dispar NCTC 10125; test: Anti-mycoplasmal activity in vitro MIC; settings: 144 h
# [28] = test system: M. suipneumoniae NCTC 10110; test: Anti-mycoplasmal activity in vitro MIC; settings: Mesomycoplasma hyopneumoniae, NCTC10110, 144 h
# [29] = test system: M. suipneumoniae JF 435; test: Anti-mycoplasmal activity in vitro MIC; settings: Mesomycoplasma hyopneumoniae, JF435, 144 h
# [30] = test system: M. suipneumoniae TAM 6N; test: Anti-mycoplasmal activity in vitro MIC; settings: Mesomycoplasma hyopneumoniae, TAM6N, 144 h
compound,measurement,setting,value
"C/C(=C\C(=O)OCCCC(=NO)c1ccccc1)C[C@@H]1OC[C@H](C[C@@H]2O[C@H]2[C@@H](C)[C@H](C)O)[C@@H](O)[C@H]1O [Example 1, 4-Hydroxyimino-4-phenylbutyl monate A]",MIC,"[1]; 144 h, M. suipneumoniae Str. 11, Friis broth, 0.9% agarose, 6 days 37° C., read-out: M.I.C.",0.1 µg/mL
same,MIC,[2],2.5 µg/mL
same,MIC,[3],0.1 µg/mL
same,MIC,[4],0.625 µg/mL
same,MIC,[5],0.625 µg/mL
same,MIC,[6],2.5 µg/mL
same,MIC,"[7]; TYPHIMURIUM, 18 h",> 80 µg/mL
same,MIC,[8],0.625 µg/mL
same,MIC,[9],0.625 µg/mL
same,MIC,[10],0.625 µg/mL
same,MIC,[11],40 µg/mL
same,MIC,"[12]; NCTC10418, 18 h",> 80 µg/mL
same,MIC,[13],20 µg/mL
same,MIC,"[14]; S7, 18 h",> 80 µg/mL
same,MIC,[15]; 18 h,5 µg/mL
same,MIC,[16],10 µg/mL
same,MIC,[17]; 18 h,> 80 µg/mL
same,MIC,[18],0.625 µg/mL
same,MIC,[19],0.156 µg/mL
same,MIC,"[20]; CY1, 18 h",> 80 µg/mL
same,MIC,[21],20 µg/mL
same,MIC,[22],≤ 0.01 µg/mL
same,MIC,[23],0.1 µg/mL
same,MIC,[24],2.5 µg/mL
same,MIC,"[25]; M. suipneumoniae UCD 1, Friis broth, 0.9% agarose, 6 days 37° C., read-out: M.I.C.",0.25 µg/mL
same,MIC,"[26]; M. suipneumoniae J2206/183b, Friis broth, 0.9% agarose, 6 days 37° C., read-out: M.I.C.",0.25 µg/mL
same,MIC,[27],0.05 µg/mL
same,MIC,"[28]; M. suipneumoniae NCTC 10110, Friis broth, 0.9% agarose, 6 days 37° C., read-out: M.I.C.",0.25 µg/mL
same,MIC,"[29]; M. suipneumoniae JF 435, Friis broth, 0.9% agarose, 6 days 37° C., read-out: M.I.C.",0.25 µg/mL
same,MIC,"[30]; M. suipneumoniae TAM 6N, Friis broth, 0.9% agarose, 6 days 37° C., read-out: M.I.C.",0.25 µg/mL
"C/C(=C\C(=O)OCCCC(=NNC(N)=O)c1ccccc1)C[C@@H]1OC[C@H](C[C@@H]2O[C@H]2[C@@H](C)[C@H](C)O)[C@@H](O)[C@H]1O [Example 2, 4-Phenyl-4-semicarbazonobutyl monate A]",MIC,"[1]; STR.11, 144 h",0.25 µg/mL
same,MIC,[2],2.5 µg/mL
same,MIC,[3],0.25 µg/mL
same,MIC,[4],5 µg/mL
same,MIC,[5],5 µg/mL
same,MIC,[6],20 µg/mL
same,MIC,"[7]; S. typhimurium S18, Diagnostic Sensitivity Test Agar, 18 hours 37° C., read-out: M.I.C.",> 80 µg/mL
same,MIC,[8],5 µg/mL
same,MIC,[9],2.5 µg/mL
same,MIC,[10],0.625 µg/mL
same,MIC,[11],> 80 µg/mL
same,MIC,"[12]; NCTC10418, E. coli NCTC 10418, Diagnostic Sensitivity Test Agar, 18 hours 37° C., read-out: M.I.C.",> 80 µg/mL
same,MIC,[13],80 µg/mL
same,MIC,"[14]; S. dublin S7, Diagnostic Sensitivity Test Agar, 18 hours 37° C., read-out: M.I.C.",> 80 µg/mL
same,MIC,"[15]; Strep. suis (Group D) SPS11, Diagnostic Sensitivity Test Agar, 18 hours 37° C., read-out: M.I.C.",10 µg/mL
same,MIC,[16],80 µg/mL
same,MIC,"[17]; E. coli El, Diagnostic Sensitivity Test Agar, 18 hours 37° C., read-out: M.I.C.",> 80 µg/mL
same,MIC,[18],10 µg/mL
same,MIC,[19],0.625 µg/mL
same,MIC,"[20]; Corynebacterium pyogenes CY1, Diagnostic Sensitivity Test Agar, 18 hours 37° C., read-out: M.I.C.",> 80 µg/mL
same,MIC,[21],10 µg/mL
same,MIC,[22],0.05 µg/mL
same,MIC,[23],0.25 µg/mL
same,MIC,[24],5 µg/mL
same,MIC,[25],0.5 µg/mL
same,MIC,[26]; J2206/183B,0.5 µg/mL
same,MIC,[27],0.1 µg/mL
same,MIC,[28],0.5 µg/mL
same,MIC,[29],0.5 µg/mL
same,MIC,[30],0.5 µg/mL

# From patent publication US4362743A, “Antibacterial monic acid esters” (Beecham Group Limited, priority 1980, dated 1982)
